Assay results published in patent US7482488B2, “Aryl and heteroaryl propene amides, derivatives thereof and therapeutic uses thereof” (Temple University - Of The Commonwealth System of Higher …, priority 2002, dated 2009).

Tests used:
Format in all cases: cell-based, human
[1] = tested on: BT20 (breast cancer); experiment: Effect on tumor cell lines: viable cell count by trypan blue exclusion, BT20; details: BT20 breast cancer cells; 100 nM to 10 μM; viable cells counted 96 hours after treatment
Experimental: (§1) The effect of the aromatic acrylamides on normal fibroblasts and on tumor cells was determined by the assay described by Latham et al.,Oncogene 12:827-837 (1996). Normal diploid lung human fibroblasts (HFL-1) or tumor cells (BT20(breast cancer), DLD1 (colorectal cancer), DU145 (prostate cancer and K562 (chronic myelogenous leukemia )) were plated in 6-well dishes at a cell density of 1.0 ×10^5cells per 35-mm^2 well. The plated cells were treated 24 hours later with a compound of the invention, dissolved in DMSO at multiple concentrations ranging from 100 nM to 10 μM. The total number of viable cells was determined 96 hours later by trypsinizing the wells and counting the number of viable cells, as determined by trypan blue exclusion, using a hemacytometer. Normal HFL cells were treated with the same compounds under the same conditions of concentration and time.
(§2) Representative examples of activities of compounds of the invention in cell lines: BT20(breast cancer), DLD1 (colorectal cancer), DU145 (prostate cancer and K562 (chronic myelogenous leukemia ) are listed in Table 5.

[2] = tested on: DLD1 (colorectal cancer); experiment: Effect on tumor cell lines: viable cell count by trypan blue exclusion, DLD1; details: DLD1 colorectal cancer cells; 100 nM to 10 μM; viable cells counted 96 hours after treatment
Experimental: as §1, §2

[3] = tested on: K562 (chronic myelogenous leukemia); experiment: Effect on tumor cell lines: viable cell count by trypan blue exclusion, K562; details: K562 chronic myelogenous leukemia cells; 100 nM to 10 μM; viable cells counted 96 hours after treatment
Experimental: as §1, §2

[4] = tested on: DU145 (prostate cancer); experiment: Effect on tumor cell lines: viable cell count by trypan blue exclusion, DU145; details: DU145 prostate cancer cells; 100 nM to 10 μM; viable cells counted 96 hours after treatment
Experimental: as §1, §2

Row | SMILES | BT20 activity [1] | DLD1 activity [2] | K562 activity [3] | DU145 activity [4]
1 | COc1ccc(NC(=O)/C=C/c2c(F)c(F)c(F)c(F)c2F)cc1[N+](=O)[O-] [Example 7, (E)-N-(4-Methoxy-3-nitrophenyl)-3-(2,3,4,5,6-pentafluorophenyl)-2-propenamide] | ++ (++ denotes activity at 10 μM) | ++ (++ denotes activity at 10 μM) | ++ (++ denotes activity at 10 μM) | ++ (++ denotes activity at 10 μM)
2 | COc1ccc(NC(=O)/C=C/c2ccc(N)c(F)c2)cc1N [Example 9, (E)-N-(4-Methoxy-3-aminophenyl)-3-(3-fluoro-4-aminophenyl)-2-propenamide] | ++ (++ denotes activity at 10 μM) | ++ (++ denotes activity at 10 μM) | ++ (++ denotes activity at 10 μM) | ++ (++ denotes activity at 10 μM)
3 | COc1ccc(NC(=O)/C=C/c2c(OC)cccc2OC)cc1 [Example 2, (E)-N-(4-Methophenyl)-3-(2,6-dimethoxypheyl)-2-propenamide] | + (+ denotes activity at >10 μM) | + (+ denotes activity at >10 μM) | + (+ denotes activity at >10 μM) | + (+ denotes activity at >10 μM)
4 | N#Cc1cc(/C=C/C(=O)Nc2ccc(Br)cc2)ccc1F [Example 13, (E)-N-(4-Bromophenyl)-3-(3-cyano-4-fluorophenyl)-2-propenamide] | ++ (++ denotes activity at 10 μM) | ++ (++ denotes activity at 10 μM) | ++ (++ denotes activity at 10 μM) | ++ (++ denotes activity at 10 μM)
5 | COc1cc(OC)c(/C=C/C(=O)Nc2ccc(OC)c(O)c2)c(OC)c1 [Example 11, (E)-N-(3-Hydoxy-4-methoxyphenyl)-3-(2,4,6-trimethoxyphenyl)-2-propenamide] | ++++ (++++ denotes activity at <100 nm) | ++++ (++++ denotes activity at <100 nm) | ++++ (++++ denotes activity at <100 nm) | ++++ (++++ denotes activity at <100 nm)
6 | COc1cc(OC)c(/C=C/C(=O)Nc2ccc(OC)c(NC(=O)C(F)(F)F)c2)c(OC)c1 [Example 10, (E)-N-(4-Methoxy-3-trifluoroacetamidophenyl)-3-(2,4,6-trimethoxyphenyl)-2-propenamide] | +++ (+++ denotes activity at 100 nM) | +++ (+++ denotes activity at 100 nM) | +++ (+++ denotes activity at 100 nM) | +++ (+++ denotes activity at 100 nM)
7 | COc1cc(/C=C/C(=O)Nc2ccc(Br)cc2)ccc1F [Example 12, (E)-N-(4-Bromophenyl)-3-(3-methoxy-4fluorophenyl)-2-propenamide] | ++ (++ denotes activity at 10 μM) | ++ (++ denotes activity at 10 μM) | ++ (++ denotes activity at 10 μM) | ++ (++ denotes activity at 10 μM)
8 | COc1ccc(NC(=O)/C=C/c2c(OC)cc(OC)cc2OC)cc1 [Example 1, (E)-N-(4-Methoxyphenyl)-3-(2,4,6-trimethoxyphenyl)-2-propen-amide] | +++ (+++ denotes activity at 100 nM) | +++ (+++ denotes activity at 100 nM) | +++ (+++ denotes activity at 100 nM) | +++ (+++ denotes activity at 100 nM)
9 | COc1ccc(NC(=O)/C=C/c2cc(OC)c(OC)c(OC)c2)cc1N [Example 4, (E)-N-(4-Methoxy-3-aminophenyl)-3-(3,4,5-trimethoxyphenyl)-2-propenamide] | + (+ denotes activity at >10 μM) | + (+ denotes activity at >10 μM) | + (+ denotes activity at >10 μM) | + (+ denotes activity at >10 μM)
10 | COc1cc(OC)c(/C=C/C(=O)Nc2ccc(OC)c(N)c2)c(OC)c1 [Example 6, (E)-N-(4-methoxy-3-aminophenyl)-3-(2,4,6-trimethoxyphenyl)-2-propenamide] | +++ (+++ denotes activity at 100 nM) | +++ (+++ denotes activity at 100 nM) | +++ (+++ denotes activity at 100 nM) | +++ (+++ denotes activity at 100 nM)
